In patent US10377741B2, “Substituted heteroaryl aldehyde compounds and methods for their use in increasing tissue oxygenation” (Global Blood Therapeutics, Inc., priority 2011, dated 2019):

What was measured:
[1] = molecular target: T1, purified Hemoglobin S (HbS) (Homo sapiens, UniProt P68871+P69905, E7V); experiment: Modulation of hemoglobin oxygen affinity: oxygen equilibrium curves (HEMOX) in purified HbS; type: biochemical, human (homozygous sickle cell patients); details: compound at 30 μM; 25 μM purified HbS, 45 min at 37° C.
T1 construct: HbS was purified by a modified procedure; from tissue; host or cells: blood of homozygous sickle cell patients (CHORI); for the polymerization assay purified by the CRO VIRUSYS
Summary of the method: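 HbS from homozygous sickle cell patient blood, 25 μM in HEMOX buffer pH 7.4, incubated 45 min at 37° C with compound (30 μM unless noted). Air-saturated then deoxygenated with N2; p50 from Hill fit; delta p50% = (control p50 − treated p50)/control p50 × 100.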

[2] = molecular target: T2, purified HBS (Homo sapiens, UniProt P68871+P69905, E7V); experiment: Polymerization assay (delay time of HbS polymerization); type: biochemical, human (homozygous sickle cell patients); details: percent delay (% DT) vs HBS alone; 50 μM purified HBS, 1.8 M potassium phosphate pH 7.4
T2 construct: HbS was purified by a modified procedure; from tissue; host or cells: blood of homozygous sickle cell patients (CHORI); for the polymerization assay purified by the CRO VIRUSYS
Protocol: Polymerization assays are carried out in vitro using purified HBS exchanged into 1.8 M potassium phosphate buffer at pH 7.4. Using a slightly modified protocol (Antonini and Brunori, 1971), HbS is purified by the CRO VIRUSYS, from blood obtained from homozygous sickle cell patients through the Hemoglobinopathy Center at Children's Hospital Oakland Research Institute (CHORI) with Institutional Review Board approval. Compounds are prepared in 100% DMSO and a desired amount is added to 50 μM of purified HBS at a final DMSO concentration of 0.3%. Final potassium phosphate concentration is adjusted to 1.8 M using a combination of 2.5 M potassium phosphate stock solution and water at pH 7.4. The reaction mixture is incubated for an hour at 37° C. and then transferred into a 24-well plate for deoxygenation in a glove box containing 99.5% nitrogen and 0.5% oxygen. The 24-well plate is not covered and incubated at 4° C. on a plate cooler inside the glove box for one and a half hours. Fifty μL of the reaction mixture is transferred into a 96-well plate and the absorbance at 700 nm is measured every minute for one hour at 37° C. in a plate reader located inside the glove box. A plot of the absorbance against time is fitted using a Boltzman sigmoidal fit and the delay time (from zero to time at half Vmax) is measured. To compare and rank compounds, delay times are expressed as percent delay (% DT), which is defined as the difference in delay times for HBS/compound and HBS alone multiplied by 100 and divided by the delay time for HBS alone.
Compounds listed below have been tested in the polymerization assay. Activity ranges are defined by the number of dagger (†) symbols indicated. † denotes activity ≥40% but ≤80%; †† denotes activity >80% but ≤120%; ††† denotes activity >120% but ≤140%; †††† denotes activity >160%.

[3] = molecular target: T3, HbS/A (Homo sapiens, UniProt P68871+P69905, E7V); experiment: R/T assay (relaxed-to-tense transition under deoxygenated conditions); type: biochemical, human (homozygous sickle cell patients); details: 3 μM HbS/A, % R remaining vs no treatment
T3 construct: A mixture of HbS/A was purified from blood; from tissue; host or cells: blood of homozygous sickle cell patients (CHORI)
Protocol: A relaxed-to-tense transition assay (“R/T assay”) was used to determine the ability of substituted benzaldehyde compounds to maintain the high-oxygen affinity relaxed (R) state of hemoglobin under deoxygenated conditions. This ability can be expressed as a “delta R” value (i.e., the change in the time-period of the R state after hemoglobin is treated with a compound, as compared to the period without treatment with the compound). Delta R is the % R to remaining after the compounds treatment compared with no treatment (e.g. if R % without treatment is 8% while with treatment with a target compound is 48% R at 30 μM, then % R is 40% for that compound.
A mixture of HbS/A was purified from blood obtained from homozygous sickle cell patients though the Hemoglobinopathy Center at Children's Hospital Oakland Research Institute (CHORI) with Institutional Review Board approval. HbS/A (at a final concentration of 3 μM) was incubated for 1 hr at 37° C. in presence or absence of compounds in […] potassium phosphate buffer, pH=7.4 and 30 μM 2, 3 diphosphoglycerate (DPG) in 96 well plates in a final volume of 160 μl. Compounds were added at different concentrations (3 μM to 100 μM final concentrations). Plates were covered with a Mylar film. After incubation was completed the Mylar cover was removed and the plates were placed in a Spectrostar Nano plate reader previously heated at 37° C. Five minutes later, N2 (flow rate=20 L/min) was flowed through the spectrophotometer. Spectroscopic measurements (300 nm to 700 nm) were taken every 5 min for 2 hours. Data analysis was performed by using linear regression from the data retrieved for all wavelengths.
Table 4 below lists the delta R values where + indicates a delta R of between 0 and 30, ++ indicates a delta R of between 30 and 50, and +++ indicates a delta R of 50 or greater. Unless noted otherwise, the compounds in Table 2 were tested at 30 μM.

[4] = tested on: whole blood; experiment: Whole blood assay: oxygen equilibrium curves of whole blood; type: cell-based, human (homozygous sickle cell patients); details: compound at 1000 μM; hematocrit 20%, 1 hour at 37° C.
Protocol: Oxygen Equilibrium Curves (OEC) of whole blood before and after treatment with different concentrations of substituted benzaldehyde compounds were performed as follows using a HEMOX analyzer (TCS Scientific, New Hope, Pa.). Blood samples from homozygous sickle cell patients were obtained though the Hemoglobinopathy Center at Children's Hospital Oakland Research Institute (CHORI) with Institutional Review Board approval. The hematocrit was adjusted to 20% using autologous plasma and the blood samples were incubated for 1 hour at 37° C. in absence or presence of compounds. 100 μl of these samples were added to 5 mL of Hemox buffer (30 mM TES, 130 mM NaCl, 5 mM KCl, pH=7.4) at 37° C. and then transferred to the Hemox sample chamber. The samples were saturated with oxygen by flushing with compressed air for 10 minutes. The samples were then flushed with pure nitrogen and the respective absorbances of oxy- and deoxy-Hb are recorded as a function of the solution pO2. The oxygen equilibrium data were then fitted to the Hill Model to obtain values for p50. The deoxygenation curves for both whole blood alone (control) and whole blood in the presence of the compound were collected with the TCS software.
Table 5 below lists the delta p50% values where + indicates a delta p50% of between 0 and 29, ++ indicates a delta p50% of between 30 and 50, and +++ indicates a delta p50% of 50 or greater. Unless noted otherwise, the compounds in Table 2 were tested at 1000 μM.

Structure (SMILES) | delta p50% [1] | % delta Delay [2] | delta R ([3]; compound at 9 μM) | delta R ([3]; compound at 30 μM) | delta p50% Values for Whole Blood Assay [4]
O=Cc1ccncc1OCc1cccc(C(=O)O)c1 [Compound 169, 3-(((4-formylpyridin-3-yl)oxy)methyl)benzoic acid] | ++ (a delta p50% of between 30 and 50) | ††† (activity >120% but ≤140%) | ++ (a delta R of between 30 and 50) |  | ++ (a delta p50% of between 30 and 50)
CCCn1nccc1-c1ncccc1COc1cnc(OC)cc1C=O [Compound 173, 2-methoxy-5-((2-(1-propyl-1H-pyrazol-5-yl)pyridin-3-yl)methoxy)isonicotinaldehyde] | +++ (a delta p50% of 50 or greater) | † (activity ≥40% but ≤80%) |  | +++ (a delta R of 50 or greater) | +++ (a delta p50% of 50 or greater)
Cc1ccc(OCc2ccc(C(=O)O)cc2)c(C=O)n1 [Compound 165, 4-(((2-formyl-6-methylpyridin-3-yl)oxy)methyl)benzoic acid] | ++ (a delta p50% of between 30 and 50) | ††† (activity >120% but ≤140%) | + (a delta R of between 0 and 30) |  | + (a delta p50% of between 0 and 29)
COc1cc(C=O)c(OCc2cccnc2-c2ccnn2C2CCC2)cn1 [Compound 195, 5-((2-(1-cyclobutyl-1H-pyrazol-5-yl)pyridin-3-yl)methoxy)-2-methoxyisonicotinaldehyde] | +++ (a delta p50% of 50 or greater) | ††† (activity >120% but ≤140%) |  | +++ (a delta R of 50 or greater) | +++ (a delta p50% of 50 or greater)
COc1cc(C=O)c(OCc2cccc(C(=O)O)c2)cn1 [Compound 203, 3-(((4-formyl-6-methoxypyridin-3-yl)oxy)methyl)benzoic acid] | +++ (a delta p50% of 50 or greater) | †† (activity >80% but ≤120%) | + (a delta R of between 0 and 30) |  | 
COc1cc(C=O)c(OCc2cccnc2-c2c(C)cnn2C(C)C)cn1 [Compound 190, 5-((2-(1-isopropyl-4-methyl-1H-pyrazol-5-yl)pyridin-3-yl)methoxy)-2-methoxyisonicotinaldehyde] | +++ (a delta p50% of 50 or greater) | ††† (activity >120% but ≤140%) |  |  | +++ (a delta p50% of 50 or greater)

Continued, in another order:

delta p50% [1] | % delta Delay [2] | delta R ([3]; compound at 9 μM) | delta R ([3]; compound at 30 μM) | Structure (SMILES) | delta p50% Values for Whole Blood Assay [4]
++ (a delta p50% of between 30 and 50) | † (activity ≥40% but ≤80%) | + (a delta R of between 0 and 30) |  | COc1cc(C=O)c(OCc2cccnc2-c2ccn(C)n2)cn1 [Compound 130, 2-methoxy-5-((2-(1-methyl-1H-pyrazol-3-yl)pyridin-3-yl)methoxy)isonicotinaldehyde] | ++ (a delta p50% of between 30 and 50)
+++ (a delta p50% of 50 or greater) | †† (activity >80% but ≤120%) |  | + (a delta R of between 0 and 30) | COc1cc(C=O)c(OCc2ccncc2-c2ccnn2C(C)C)cn1 [Compound 160, 5-((3-(1-isopropyl-1H-pyrazol-5-yl)pyridin-4-yl)methoxy)-2-methoxyisonicotinaldehyde] | +++ (a delta p50% of 50 or greater)
+++ (a delta p50% of 50 or greater) | ††† (activity >120% but ≤140%) |  |  | COc1cncc(OCc2cccnc2-c2ccnn2C(C)C)c1C=O [Compound 188, 3-((2-(1-isopropyl-1H-pyrazol-5-yl)pyridin-3-yl)methoxy)-5-methoxyisonicotinaldehyde] | +++ (a delta p50% of 50 or greater)
+++ (a delta p50% of 50 or greater) | † (activity ≥40% but ≤80%) | + (a delta R of between 0 and 30) |  | CC(C)n1nccc1-c1ncccc1COc1cccnc1C=O [Compound 176, 3-((2-(1-isopropyl-1H-pyrazol-5-yl)pyridin-3-yl)methoxy)picolinaldehyde] | +++ (a delta p50% of 50 or greater)
+++ (a delta p50% of 50 or greater) | †† (activity >80% but ≤120%) |  | ++ (a delta R of between 30 and 50) | COc1cc(C=O)c(OCc2cccnc2-c2ccnn2CC(F)F)cn1 [Compound 175, 5-((2-(1-(2,2-difluoroethyl)-1H-pyrazol-5-yl)pyridin-3-yl)methoxy)-2-methoxyisonicotinaldehyde] | +++ (a delta p50% of 50 or greater)
+++ (a delta p50% of 50 or greater) | ††† (activity >120% but ≤140%) | + (a delta R of between 0 and 30) |  | COc1cc(C=O)c(OCc2cccnc2-c2ccnn2CCC(=O)O)cn1 [Compound 202, 3-(5-(3-(((4-formyl-6-methoxypyridin-3-yl)oxy)methyl)pyridin-2-yl)-1H-pyrazol-1-yl)propanoic acid] | + (a delta p50% of between 0 and 29)
++ (a delta p50% of between 30 and 50) | † (activity ≥40% but ≤80%) | + (a delta R of between 0 and 30) |  | COc1cc(C=O)c(OCc2cccnc2-c2ccnn2CC2CCCCC2)cn1 [Compound 197, 5-((2-(1-(cyclohexylmethyl)-1H-pyrazol-5-yl)pyridin-3-yl)methoxy)-2-methoxyisonicotinaldehyde] | +++ (a delta p50% of 50 or greater)
++ (a delta p50% of between 30 and 50) | ††† (activity >120% but ≤140%) |  |  | COc1cc(C=O)c(OCc2cccnc2-c2ncnn2C(C)C)cn1 [Compound 189, 5-((2-(2-isopropyl-2H-1,2,4-triazol-3-yl)pyridin-3-yl)methoxy)-2-methoxyisonicotinaldehyde] | +++ (a delta p50% of 50 or greater)
